Test results reported in US5449752A, “Polypeptides with affinity to lipopolysaccharides and their uses” (Seikagaku Kogyo K.K., priority 1991, dated 1995).
Converted amounts (≈) assume the structure as drawn. Positions of bridges follow the written chain, without caps; N, C: chain ends. Residues, ends and D or L forms follow the SMILES beside them.

Experiments:
HIV = assay: Antiviral activity against HIV in HIV-infected MT-4 cells (MTT method); type: cell-based, human immunodeficiency virus; details: for EC50 (concentration at which cell death due to HIV infection is 50% inhibited): HIV-infected MT-4 cells, MOI 0.001, 37° C., 5 days, MTT method; for SI (CC50 /EC50): rough ratio of CC50 to EC50, MT-4 cells; for selectivity in killing HIV infected cells (in words): MT-4 cells, Table III; for selectivity index higher than for any of the known high endotoxin affinity compounds: compared with Tachyplesins and Polyphemusins of Table III
Method: The antiviral activity-against HIV of the polypeptide (1) synthesized in Example 1 as well as polypeptides (2), (3), (4), (7), (12), (13), (14), (20), (21) and (26) was tested and evaluated according to the following method.
(§1) HIV-infected MT-4 cells (2.5×10^4 cells/well, multiplicity of infection (MOI): 0.001) immediately after infection were added together with the test substance with various changes of the concentration to a 96-well microtitre plate. After incubation at 37° C. for 5 days in a CO2 incubator, the number of survivor cells was measured by the MTT method [Pauwels et al.; J. Virol. Methods, 20, 309-321 (1988)]. The antiviral activity is expressed as a concentration at which cell death due to HIV infection is 50% inhibited (EC50 : 50% effective concentration). On the other hand, in order to know the cytotoxicity of the test substance on the MT-4 cells, virus-noninfected cells are incubated, likewise as above, together with the test compound with various changes of the concentration. The cytotoxicity is expressed as 50% cytotoxic concentration […] due to the test substance. Further, the rough ratio of CC50 to EC50 (CC50 /EC50) is expressed as an effective ratio (SI=selectivity index).

MT-4 cells = assay: Cytotoxicity on virus-noninfected MT-4 cells (MTT method); type: cell-based; details: 37° C., 5 days
Method: as §1

SMILES	EC50 (concentration at which cell death due to HIV infection is 50% inhibited) (HIV) [µg/mL]	CC50 (50% cytotoxic concentration) (MT-4 cells) [µg/mL]	SI (CC50 /EC50) (HIV)	selectivity in killing HIV infected cells (in words) (HIV)	selectivity index higher than for any of the known high endotoxin affinity compounds (HIV)
Cc1cn([C@H]2C[C@H](N=[N+]=[N-])[C@@H](CO)O2)c(=O)[nH]c1=O [AZT, reference compound]	4.8 (≈ 18 µM)	6.8 (≈ 25.4 µM)	–	–	–
CC(C)[C@@H]1NC(=O)[C@H](CCCNC(=N)N)NC(=O)[C@H](Cc2ccccc2)NC(=O)[C@@H](NC(=O)[C@H](Cc2c[nH]c3ccccc23)NC(=O)[C@H](CCCNC(=N)N)NC(=O)[C@@H](N)CCCNC(=N)N)CSSC[C@@H](C(=O)N[C@@H](CCCNC(=N)N)C(N)=O)NC(=O)[C@H](CCCCN)NC(=O)[C@H](CCCNC(=N)N)NC(=O)[C@H](Cc2ccc(O)cc2)NC(=O)[C@@H]2CSSC[C@H](NC1=O)C(=O)N[C@@H](Cc1ccc(O)cc1)C(=O)N[C@@H](CCCCN)C(=O)NCC(=O)N[C@@H](Cc1ccccc1)C(=O)N2 [Polyphemusin II, ArgArgTrpCysPheArgValCysTyrLysGlyPheCysTyrArgLysCysArg NH2, reference compound] (H-RRWCFRVCYKGFCYRKCR-NH2; disulfide 4-17, 8-13)	1.9 (≈ 0.783 µM)	33 (≈ 13.6 µM)	17	–	–
CC[C@H](C)[C@@H]1NC(=O)CNC(=O)[C@H](CCCNC(=N)N)NC(=O)[C@H](Cc2ccc(O)cc2)NC(=O)[C@@H]2CSSC[C@H](NC1=O)C(=O)N[C@@H](Cc1ccc(O)cc1)C(=O)N[C@@H](CCCNC(=N)N)C(=O)N[C@@H](CCCCN)C(=O)N[C@H](C(=O)N[C@@H](CCCNC(=N)N)C(N)=O)CSSC[C@H](NC(=O)[C@H](Cc1c[nH]c3ccccc13)NC(=O)[C@@H](N)CCCNC(=N)N)C(=O)N[C@@H](Cc1ccccc1)C(=O)N[C@@H](CCCNC(=N)N)C(=O)N[C@@H](C(C)C)C(=O)N2 [Tachyplesin II, ArgTrpCysPheArgValCysTyrArgGlyIleCysTyrArgLysCysArg NH2, reference compound] (H-RWCFRVCYRGICYRKCR-NH2; disulfide 3-16, 7-12)	–	36 (≈ 15.9 µM)	6	–	–
N=C(N)NCCC[C@H](NC(=O)[C@@H]1CSSC[C@H](NC(=O)[C@H](Cc2c[nH]c3ccccc23)NC(=O)[C@H](CCCNC(=N)N)NC(=O)[C@@H](N)CCCNC(=N)N)C(=O)N[C@@H](Cc2ccc(O)cc2)C(=O)N[C@@H](CCCNC(=N)N)C(=O)N[C@@H](CCCCN)C(=O)N[C@H]2CSSC[C@H](NC(=O)[C@H](Cc3ccc(O)cc3)NC(=O)CNC(=O)[C@H](CCCCN)NC(=O)[C@H](Cc3ccc(O)cc3)NC2=O)C(=O)N[C@@H](Cc2ccc(O)cc2)C(=O)N[C@@H](CCCNC(=N)N)C(=O)N[C@@H](CCCCN)C(=O)N1)C(N)=O [polypeptide (1)] (H-RRWCYRKCYKGYCYRKCR-NH2; disulfide 4-17, 8-13)	–	54 (≈ 21.7 µM)	10800	–	–
N=C(N)NCCC[C@H](NC(=O)[C@H](CCCNC(=N)N)NC(=O)[C@@H]1CSSC[C@H](NC(=O)[C@H](Cc2c[nH]c3ccccc23)NC(=O)[C@H](CCCNC(=N)N)NC(=O)[C@@H](N)CCCNC(=N)N)C(=O)N[C@@H](Cc2ccc(O)cc2)C(=O)N[C@@H](CCCNC(=N)N)C(=O)N[C@@H](CCCCN)C(=O)N[C@H]2CSSC[C@H](NC(=O)[C@H](Cc3ccc(O)cc3)NC(=O)CNC(=O)[C@H](CCCCN)NC(=O)[C@H](Cc3ccc(O)cc3)NC2=O)C(=O)N[C@@H](Cc2ccc(O)cc2)C(=O)N[C@@H](CCCNC(=N)N)C(=O)N[C@@H](CCCCN)C(=O)N1)C(N)=O [polypeptide (2), ArgArgTrpCysTyrArgLysCysTyrLysGlyTyrCysTyrArgLysCysArgArgNH2] (H-RRWCYRKCYKGYCYRKCRR-NH2; disulfide 4-17, 8-13; N-terminus assumed)	1.26 (≈ 0.477 µM)	200 (≈ 75.7 µM)	–	–	–
N=C(N)NCCC[C@H](NC(=O)[C@@H]1CSSC[C@H](NC(=O)[C@H](Cc2c[nH]c3ccccc23)NC(=O)[C@@H](N)CCCNC(=N)N)C(=O)N[C@@H](Cc2ccc(O)cc2)C(=O)N[C@@H](CCCNC(=N)N)C(=O)N[C@@H](CCCCN)C(=O)N[C@H]2CSSC[C@H](NC(=O)[C@H](Cc3ccccc3)NC(=O)CNC(=O)[C@H](CCCCN)NC(=O)[C@H](Cc3ccc(O)cc3)NC2=O)C(=O)N[C@@H](Cc2ccc(O)cc2)C(=O)N[C@@H](CCCNC(=N)N)C(=O)N[C@@H](CCCCN)C(=O)N1)C(N)=O [polypeptide (3), ArgTrpCysTyrArgLysCysTyrLysGlyPheCysTyrArgLysCysArgNH2] (H-RWCYRKCYKGFCYRKCR-NH2; disulfide 3-16, 7-12; N-terminus assumed)	0.07 (≈ 0.0302 µM)	50 (≈ 21.6 µM)	–	particularly selective	at least 7 fold
N=C(N)NCCC[C@H](NC(=O)[C@H](CCCNC(=N)N)NC(=O)[C@@H]1CSSC[C@H](NC(=O)[C@H](Cc2c[nH]c3ccccc23)NC(=O)[C@@H](N)CCCNC(=N)N)C(=O)N[C@@H](Cc2ccc(O)cc2)C(=O)N[C@@H](CCCNC(=N)N)C(=O)N[C@@H](CCCCN)C(=O)N[C@H]2CSSC[C@H](NC(=O)[C@H](Cc3ccccc3)NC(=O)CNC(=O)[C@H](CCCCN)NC(=O)[C@H](Cc3ccc(O)cc3)NC2=O)C(=O)N[C@@H](Cc2ccc(O)cc2)C(=O)N[C@@H](CCCNC(=N)N)C(=O)N[C@@H](CCCCN)C(=O)N1)C(N)=O [polypeptide (4), ArgTrpCysTyrArgLysCysTyrLysGlyPheCysTyrArgLysCysArgArgNH2] (H-RWCYRKCYKGFCYRKCRR-NH2; disulfide 3-16, 7-12; N-terminus assumed)	2.75 (≈ 1.11 µM)	338 (≈ 137 µM)	–	–	–
N=C(N)NCCC[C@H](NC(=O)[C@@H]1CSSC[C@H](NC(=O)[C@H](Cc2c[nH]c3ccccc23)NC(=O)[C@H](CCCNC(=N)N)NC(=O)[C@@H](N)CCCNC(=N)N)C(=O)N[C@@H](Cc2ccc(O)cc2)C(=O)N[C@@H](CCCCN)C(=O)N[C@@H](CCCNC(=N)N)C(=O)N[C@H]2CSSC[C@H](NC(=O)[C@H](Cc3ccc(O)cc3)NC(=O)CNC(=O)[C@H](CCCCN)NC(=O)[C@H](Cc3ccc(O)cc3)NC2=O)C(=O)N[C@@H](Cc2ccc(O)cc2)C(=O)N[C@@H](CCCCN)C(=O)N[C@@H](CCCNC(=N)N)C(=O)N1)C(N)=O [polypeptide (12), ArgArgTrpCysTyrLysArgCysTyrLysGlyTyrCysTyrLysArgCysArgNH2] (H-RRWCYKRCYKGYCYKRCR-NH2; disulfide 4-17, 8-13; N-terminus assumed)	0.49 (≈ 0.197 µM)	245 (≈ 98.5 µM)	–	particularly selective	at least 7 fold
N=C(N)NCCC[C@H](NC(=O)[C@@H]1CSSC[C@H](NC(=O)[C@H](Cc2c[nH]c3ccccc23)NC(=O)[C@H](CCCNC(=N)N)NC(=O)[C@@H](N)CCCNC(=N)N)C(=O)N[C@@H](Cc2ccc(O)cc2)C(=O)N[C@@H](CCCNC(=N)N)C(=O)N[C@@H](CCCCN)C(=O)N[C@H]2CSSC[C@H](NC(=O)[C@H](Cc3ccccc3)NC(=O)CNC(=O)[C@H](CCCCN)NC(=O)[C@H](Cc3ccc(O)cc3)NC2=O)C(=O)N[C@@H](Cc2ccc(O)cc2)C(=O)N[C@@H](CCCNC(=N)N)C(=O)N[C@@H](CCCCN)C(=O)N1)C(N)=O [polypeptide (13), ArgArgTrpCysTyrArgLysCysTyrLysGlyPheCysTyrArgLysCysArgNH2] (H-RRWCYRKCYKGFCYRKCR-NH2; disulfide 4-17, 8-13; N-terminus assumed)	0.009 (≈ 0.00364 µM)	52 (≈ 21 µM)	–	particularly selective	at least 7 fold
N=C(N)NCCC[C@H](NC(=O)[C@@H]1CSSC[C@H](NC(=O)[C@H](Cc2c[nH]c3ccccc23)NC(=O)[C@H](CCCNC(=N)N)NC(=O)[C@@H](N)CCCNC(=N)N)C(=O)N[C@@H](Cc2ccc(O)cc2)C(=O)N[C@@H](CCCNC(=N)N)C(=O)N[C@@H](CCCCN)C(=O)N[C@H]2CSSC[C@H](NC(=O)[C@H](Cc3ccc(O)cc3)NC(=O)CNC(=O)[C@H](CCCNC(=N)N)NC(=O)[C@H](Cc3ccc(O)cc3)NC2=O)C(=O)N[C@@H](Cc2ccc(O)cc2)C(=O)N[C@@H](CCCNC(=N)N)C(=O)N[C@@H](CCCCN)C(=O)N1)C(N)=O [polypeptide (14), ArgArgTrpCysTyrArgLysCysTyrArgGlyTyrCysTyrArgLysCysArgNH2] (H-RRWCYRKCYRGYCYRKCR-NH2; disulfide 4-17, 8-13; N-terminus assumed)	0.018 (≈ 0.00716 µM)	52 (≈ 20.7 µM)	–	particularly selective	at least 7 fold
